Here are results for two compounds from patent US8354499B2, “Cyanine-based probe\tag-peptide pair fluorescence protein imaging and fluorescence protein imaging methods” (Battelle Memorial Institute, priority 2007, dated 2013).

The conditions of data set [1]: depending on binding peptide; cited from earlier work.
Data set [2] has as its system peptide-tag (SEQ ID NO. 2) versus FlAsH tag (SEQ ID NO. 3). Put plainly: Single-pot selective labeling / FRET study, tagged MLCK peptide and FlAsH-tag calmodulin. The class given is binding. As for the experimental part: Fluorescent resonance energy transfer (FRET) studies were also performed. Calmodulin which is known to bind MLCK in a 1:1 ratio in the presence of calcium was covalently linked to a FlAsH-tag having sequence CysCysProGlyCysCys (SEQ ID NO. 3). SEQ ID NO. 2 was utilized to label the MLCK peptide as described above.

The nature of data set [3]: Absorbance, emission and photophysical properties of free and tag-bound probe. Type of data set: physicochemical. The text has this:
In addition to NMR, the synthesized probe of formula (I) was characterized by determining the absorbance and emission spectra, as presented in FIG. 1. The free probe has an absorbance maximum at 560 nm and an emission maximum at 568 nm.
The spectra of FIG. 1 are normalized to the probe/tagged MLCK peptide pair.
The tag bound probe has a quantum yield of 0.28.

Another data set deals with Non-tagged MLCK peptide. The experiment in a line: Control titration of the probe with non-tagged MLCK peptide. Type of data set: binding. The following applies: FIG. 2 circles.
The test system of data set [4] is tagged MLCK peptide (calmodulin binding peptide of myosin light chain kinase with SEQ ID NO. 2 tag on the C-terminus). Put plainly: Fluorescence titration of the formula (I) probe with tagged MLCK peptide. To be noted: titration of tagged MLCK peptide into probe solution, FIG. 2. From the text: For the present study, a tagged peptide was created utilizing the calmodulin binding peptide of the myosin light chain kinase (MLCK) having SEQ ID NO. 2 engineered onto the C-terminus (henceforth tagged MLCK peptide). To determine the binding affinity of the probe to the tag, the tagged MLCK peptide was titrated into a solution containing a probe having formula (I). […] This corresponds to peak molar binding in the absence of ethanedithiol.

The structures appear in SMILES notation.

Take `O=C(O)c1ccccc1-c1c2ccc(=O)c([As]3SCCS3)c-2oc2c([As]3SCCS3)c(O)ccc12` [FlAsH]: the “brightness (reported)” value in data set [1] is given as 41-60.
`CC1(C)C(/C=C/C=C2/N(CCCCS(=O)(=O)O)c3ccc([As]4SCCS4)cc3C2(C)C)=[N+](CCCCS(=O)(=O)[O-])c2ccc([As]3SCCS3)cc21` [formula (I)]: in data set [2] (single pot labeling with FlAsH and formula (I), FRET results), the “preference for binding of the peptide-tag over FlAsH tag” value is recorded as 85/15. In addition, the “FRET between FlAsH labeled calmodulin and formula (I) labeled tagged MLCK peptide” value in data set [2] (titration with 0.1-1 μM labeled peptide, FIG. 3) is on record as “FRET was observed in proportion to labeling”. In data set [3], the extinction coefficient is 180,000. In data set [3] (free probe), the absorbance maximum was 560 nm and the emission maximum stood at 568 nm. For the same compound, the “lifetime under photo bleaching conditions” value in data set [3] (peptide bound probe, relative to FlAsH) was “three times longer than that of FlAsH”. Besides, the fluorescence emission maximum in data set [3] (probe bound to peptide tag (red-shift)) stood at 576 nm. Besides, in data set [3] (tag bound probe), the “brightness relative to FlAsH and ReAsH” value was “considerably higher than ReAsH”; the quantum yield is on record as 0.28. The “fluorescence change on titration with non-tagged MLCK peptide” value with Non-tagged MLCK peptide was “no increase in fluorescence”. Also, the “increase of probe fluorescence upon addition of tagged peptide” value in data set [4] was determined as 5.8 fold.
